Measurements reported in patent US20230365673A1, “MEANS FOR REDUCING RADIO- AND CHEMOTHERAPY RESISTANCE AND ADVERSE EFFECTS” (JOHANN WOLFGANG GOETHE-UNIVERSITÄT FRANKFURT AM MAIN, priority 2020, published 2023).

Tests used:
[1] = system: human intestinal fibroblasts; test: SA-β-gal staining of irradiated (3×2 Gy) fibroblasts pre-conditioned with IL-1RA low organoid medium; format: cell-based; details: IL-1RA low conditioned medium, anakinra 20 μg/mL, 72 h
Description: (§1) (A and B) Quantification of IL-1 and IL-1RA baseline serum levels in non-pCR (n=25) and pCR (n=7) patients before CRT. Data are mean±SD. ** p<0.01 by t-test. (C) IL-1RA serum level association with two SNPs: rs4251961 (T/C) and rs579543 (A/G) using DNA isolated from patients (n=31) pre-CRT peripheral blood mononuclear cells. Data are mean±SD. ** p=0.0052 by t-test. (D) Kaplan-Meier DFS curve of patients with high (n=37) and low (n=37) IL-1RN expression score (median split) based on the RNA sequencing data of pre-CRT biopsies. * p<0.05 by Log-rank (Mantel-Cox) test. […] (H) Paired analysis of sirius red staining of non-pCR patients (n=11) pre versus post-CRT. Scale bars=300 μm. (I) Paired quantification of p21 immunohistochemistry staining of non-pCR patients (n=10) pre versus post CRT. (J) Correlation analysis of pre-CRT serum IL-1RA levels with ratio of p21 induction (post/pre-CRT p21 RNA expression level) (n=10 non pCR patients). * p<0.05 by Spearman r correlation test. […] (M) Nitrite concentration determined by Griess assay in supernatants from WT, IL-1RA high & IL-1RA low conditioned media treated human fibroblasts for 72 h (n=13 independent wells per group). […] (N) Nitrite concentration determined by Griess assay in supernatants from untreated and IL-1α (1 μg/mL) stimulated human fibroblasts for 72 h (n=32 independent wells per group representing 3 independent experiments). […]

colon fibroblasts [2] = test: Nitrite concentration by Griess assay in fibroblast supernatants; format: cell-based, mouse; details: recombinant IL-1α 1 μg/mL, 72 hours
Experimental: (§2) (A) Schematic illustration of APTKA organoids supernatant collection and treatment of colon fibroblasts from unchallenged wildtype C57BL/6 mice for 12 h followed by 3×2 Gy irradiation. Microscopic, proteomic & transcriptomic analysis were performed 72 h post first irradiation. (B) Microscopic captures of non-irradiated wildtype (WT) and APTKA conditioned fibroblasts. Remaining captures belong to irradiated fibroblasts: WT, IL-1α (1 μg/mL) stimulated WT, and APTKA conditioned media minus or plus anakinra (20 μg/mL) treated fibroblasts. Scale bars=200 μm. (C) Mass spectrometric analysis of matrisome profiles of 3×2 Gy irradiated (n=8) and non-irradiated (n=8) APTKA conditioned fibroblasts. […] (G) Immunoblot analysis of untreated and irradiated APTKA conditioned fibroblasts. Representative results from one experiment which has been independently repeated 2 times. (H) SA-ß gal staining of untreated and irradiated APTKA fibroblasts. Scale bars=100 μm. (I and J) p21 and pH2AX immunofluorescent staining of untreated and irradiated APTKA fibroblasts. Scale bars=[…]. Data are mean±SD. ** […] and *** p<0.001 by t-test. (K) Nitrite concentration determined by Griess assay in conditioned media from WT, APTK media, APTKA media, IL-1α (1 μg/mL) stimulated and APTKA plus anakinra (20 μg/mL) treated fibroblasts for 72 h (n=10 independent wells per group). […]

colon fibroblasts [3] = test: Oxidative DNA damage by 8-OHdG immunofluorescence in fibroblasts; format: cell-based, mouse; details: recombinant IL-1α 1 μg/mL, 72 hours
Experimental: as §2

human fibroblasts = test: Nitrite concentration by Griess assay in human fibroblast supernatants; format: cell-based; details: IL-1α 1 μg/mL only, 72 h
Description: as §1

| Substance | senescence induction upon irradiation (SA-β-gal staining) [1] | nitrite levels in fibroblast supernatants (colon fibroblasts [2]) | oxidative DNA damage (8-OHdG immunofluorescence) (colon fibroblasts [3]) | nitrite production by fibroblasts (human fibroblasts) |
| --- | --- | --- | --- | --- |
| anakinra: Kineret®, an interleukin-1 receptor antagonist | could be blocked by anakinra | – | – | – |
| recombinant IL-1α: recombinant cytokine used to stimulate fibroblasts | – | significantly elevated | increase in oxidative DNA damage | higher nitrite production by fibroblasts |
